Laboratory results published in US12655174B2, “Adenosine A3 receptor agonists, preparation methods and uses thereof” (ZHEJIANG VIMGREEN PHARMACEUTICALS, LTD., priority 2020, dated 2026).

target: T1, ADORA3 receptor (CHO cells stably expressing ADORA3 receptor) (Homo sapiens, UniProt P0DMS8); assay: Effect of compound on intracellular cAMP level by adenosine A3 receptor agonism; type: cell-based; details: forskolin-stimulated
T1 construct: expressed in transfected cells
T1 sequence (P0DMS8 1-318): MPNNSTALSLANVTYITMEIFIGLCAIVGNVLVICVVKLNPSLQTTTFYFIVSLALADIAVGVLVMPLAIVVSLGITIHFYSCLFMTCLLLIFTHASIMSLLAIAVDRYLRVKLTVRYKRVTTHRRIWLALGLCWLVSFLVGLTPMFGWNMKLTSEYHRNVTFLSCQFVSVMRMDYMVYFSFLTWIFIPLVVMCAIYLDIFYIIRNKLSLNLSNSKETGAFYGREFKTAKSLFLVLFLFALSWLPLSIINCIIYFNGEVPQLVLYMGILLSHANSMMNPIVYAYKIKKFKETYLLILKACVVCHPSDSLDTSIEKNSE
Method: Example 26: Test the Effect of Compound on Intracellular cAMP Level by Adenosine A3 Receptor Agonism
• 1) 1×HBSS with Ca2+ and Mg2+ (14 mL), 1 M HEPES (75 μL), a 7.5% (w/v) BSA stabilizer (pH 7.4, 200 μL), and 20 mM rolipram (7.5 μL) were respectively prepared as cAMP assay buffer. • 2) Preparation of compound source plate • a. […] A 10 mM stock solution was subjected to a 3-fold serial dilution by 100% (v/v) DMSO to prepare 10 doses of the test substance. • c. 1 mM of Forskolin was prepared by 100% (v/v) DMSO. • 3) Preparation of test plate • a. Prior to the assay, CHO cells stably expressing ADORA3 receptor were harvested and the cells were counted by using a Countess cell counter. […] The cells were seeded at a density of 2,000 cells/well in a 384-well plate. • 4) 10 nL/well of the serially diluted compound and 10 nL/well of 1 mM of forskolin were transferred to each well with ADORA3 receptor expressing cells by using Echo550. • 5) A cell plate was centrifuged at 1,000 rpm for 1 minute and then stirred at 600 rpm for 2 minutes. The plate was incubated at 37° C. • 6) An Eu-cAMP tracer working solution and an Ulight-anti-cAMP working solution were prepared according to the following table.
• 7) 5 μl/well of the Eu-cAMP tracer working solution and 5 μl/well of the Ulight-anti-cAMP working solution were added to each well of the plate. […] 2. Data Analysis • 1) An activation percentage was calculated by using the following formula:
[formula] • % Activation: activation percentage • Ratiocpd: ratio of emissivity of test compound • RatioLow control: ratio of low emissivity • RatioHigh control: ratio of high emissivity • 2) EC50 was calculated by an XLfit using the Hill equation to fit the activity percentage and a log of a compound concentration. 3. Test Result

Q: For `CNC(=O)[C@H]1O[C@@H](n2cnc3c(NCc4cccc(C)n4)nc(-c4cccnc4)nc32)[C@H](O)[C@@H]1O` [compound 107], which EC50 is on record?
A: 5.22 nM

Q: Which EC50 does the source give for `CNC(=O)[C@H]1O[C@@H](n2cnc3c(NCc4cccc(Cl)n4)nc(-c4cccnc4)nc32)[C@H](O)[C@@H]1O` [compound 247] here?
A: 4.16 nM

Q: With `[2H]C([2H])([2H])NC(=O)[C@H]1O[C@@H](n2cnc3c(NCc4cc(C)cc(C)c4)nc(-c4cncc(Cl)c4)nc32)[C@H](O)[C@@H]1O` [compound 224, (2S,3S,4R,5R)-5-(2-(5-chloropyridin-3-yl)-6-((3,5-dimethylbenzyl)amino)-9H-purin-9-yl)-3,4-dihydroxyl-N-(methyl-d3)-tetrahydrofuran-2-carboxamide] as the molecule, how does the EC50 read?
A: 1.34 nM

Q: With `[2H]C([2H])([2H])NC(=O)[C@H]1O[C@@H](n2cnc3c(NCc4cc(C)cc(Cl)c4)nc(-c4cncc(Cl)c4)nc32)[C@H](O)[C@@H]1O` [compound 222, (2S,3S,4R,5R)-5-(6-((3-chloro-5-methylbenzyl)amino)-2-(5-chloropyridin-3-yl)-9H-purin-9-yl)-3,4-dihydroxyl-N-(methyl-d3)-tetrahydrofuran-2-carboxamide] as the molecule, how does the EC50 read?
A: 0.89 nM

Q: For `[2H]C([2H])([2H])NC(=O)[C@H]1O[C@@H](n2cnc3c(NCc4cccc(C)c4)nc(-c4cncc(CC)c4)nc32)[C@H](O)[C@@H]1O` [compound 282, (2S,3S,4R,5R)-5-(2-(5-ethylpyridin-3-yl)-6-((3-methylbenzyl)amino)-9H-purin-9-yl)-3,4-dihydroxyl-N-(methyl-d3)tetrahydrofuran-2-formamide], which EC50 is on record?
A: 4 nM

tested on: not listed separately; assay: Pharmacokinetic test of compound in SD rat; type: in vivo; details: SD rats, intragastric administration (IG), cassette dosing
Method: Example 28: Pharmacokinetic Test of Compound in SD Rat
The animal species used in this experiment were SD rats. There were 3 animals per group. The rats were dosed in cassette format, i.e., multiple (1-6) different compounds were dosed simultaneously to the same group of the SD rats. The vehicle used for the drug was 5% DMSO+5% Solutl+90% ([…] methylcellulose M450), and the administration route was intragastric administration (IG).

Q: With `[2H]C([2H])([2H])NC(=O)[C@H]1O[C@@H](n2cnc3c(N[C@H](C)c4ccccc4)nc(-c4cncc(Cl)c4)nc32)[C@H](O)[C@@H]1O` [compound 251] as the molecule, how does the “AUC_D” value read?
A: 610.00 kg·ng·h/mL/mg

Q: Which “AUC_D” value does the source give for `[2H]C([2H])([2H])NC(=O)[C@H]1O[C@@H](n2cnc3c(NCc4ccccc4)nc(-c4cncc(Cl)c4)nc32)[C@H](O)[C@@H]1O` [compound 15, (2S,3S,4R,5R)-5-(6-(benzylamino)-2-(5-chloropyridin-3-yl)-9H-purin-9-yl)-3,4-dihydroxyl-N-(methyl-d3)-tetrahydrofuran-2-formamide] here?
A: 807.78 kg·ng·h/mL/mg

Q: With `CNC(=O)[C@H]1O[C@@H](n2cnc3c(NCc4ccccc4)nc(-c4cncc(C)c4)nc32)[C@H](O)[C@@H]1O` [compound 118, (2S,3S,4R,5R)-5-(6-(benzylamino)-2-(5-methylpyridin-3-yl)-9H-purin-9-yl)-3,4-dihydroxyl-N-methyltetrahydrofuran-2-carboxamide] as the molecule, how does the “AUC_D” value read?
A: 347.00 kg·ng·h/mL/mg

Q: For `[2H]C([2H])([2H])NC(=O)[C@H]1O[C@@H](n2cnc3c(NCc4ccc(Cl)cc4)nc(-c4cncc(Cl)c4)nc32)[C@H](O)[C@@H]1O` [compound 168, (2S,3S,4R,5R)-5-(6-(4-chlorobenzylamino)-2-(5-chloropyridin-3-yl)-9H-purin-9-yl)-3,4-dihydroxyl-N-(methyl-d3)-tetrahydrofuran-2-formamide], which “AUC_D” value is on record?
A: 1551.15 kg·ng·h/mL/mg

Q: With `CCNC(=O)[C@H]1O[C@@H](n2cnc3c(NC)nc(-c4ccsc4)nc32)[C@H](O)[C@@H]1O` [compound 77, (2S,3S,4R,5R)-N-ethyl-3,4-dihydroxyl-5-(6-(methylamino)-2-(thiophen-3-yl)-9H-purin-9-yl)tetrahydrofuran-2-carboxamide] as the molecule, how does the “AUC_D” value read?
A: 81.00 kg·ng·h/mL/mg

Q: Which “AUC_D” value does the source give for `[2H]C([2H])([2H])NC(=O)[C@H]1O[C@@H](n2cnc3c(NC([2H])([2H])[2H])nc(-c4ccoc4)nc32)[C@H](O)[C@@H]1O` [compound 97, (2S,3S,4R,5R)-5-(2-(furan-3-yl)-6-((methyl-d3)amino)-9H-purin-9-yl)-3,4-dihydroxyl-N-(methyl-d)tetrahydrofuran-2-carboxamide] here?
A: 115.00 kg·ng·h/mL/mg

Q: With `CCNC(=O)[C@H]1O[C@@H](n2cnc3c(NC)nc(-c4ccoc4)nc32)[C@H](O)[C@@H]1O` [compound 74, (2S,3S,4R,5R)-N-ethyl-5-(2-(furan-3-yl)-6-(methylamino)-9H-purin-9-yl)-3,4-dihydroxyltetrahydrofuran-2-carboxamide] as the molecule, how does the “AUC_D” value read?
A: 213.00 kg·ng·h/mL/mg

Q: Which “AUC_D” value does the source give for `CCNC(=O)[C@H]1O[C@@H](n2cnc3c(N)nc(-c4cncc(Cl)c4)nc32)[C@H](O)[C@@H]1O` [compound 324, (2S,3S,4R,5R)-5-(6-amino-2-(5-chloropyridin-3-yl)-9H-purin-9-yl)-N-ethyl-3,4-dihydroxyltetrahydrofuran-2-formamide] here?
A: 78.00 kg·ng·h/mL/mg

Q: Which “AUC_D” value does the source give for `CNC(=O)[C@H]1O[C@@H](n2cnc3c(NCc4ccccc4)nc(-c4cncc(F)c4)nc32)[C@H](O)[C@@H]1O` [compound 153, (2S,3S,4R,5R)-5-(6-(benzylamino)-2-(5-fluoropyridin-3-yl)-9H-purin-9-yl)-3,4-dihydroxyl-N-methyltetrahydrofuran-2-carboxamide] here?
A: 829.00 kg·ng·h/mL/mg

Q: For `[2H]C([2H])([2H])NC(=O)[C@H]1O[C@@H](n2cnc3c(NCc4cccnc4)nc(-c4cncc(Cl)c4)nc32)[C@H](O)[C@@H]1O` [compound 235, (2S,3S,4R,5R)-5-(2-(5-chloropyridin-3-yl)-6-(pyridin-3-ylmethylamino)-9H-purin-9-yl)-3,4-dihydroxyl-N-(methyl-d3)-tetrahydrofuran-2-carboxamide], which “AUC_D” value is on record?
A: 1456.00 kg·ng·h/mL/mg

Q: Which “AUC_D” value does the source give for `[2H]C([2H])([2H])NC(=O)[C@H]1O[C@@H](n2cnc3c(NCC(F)(F)F)nc(-c4cncc(Cl)c4)nc32)[C@H](O)[C@@H]1O` [compound 202] here?
A: 138.00 kg·ng·h/mL/mg

Q: Which “AUC_D” value does the source give for `[2H]C([2H])([2H])NC(=O)[C@H]1O[C@@H](n2cnc3c(NCc4cocn4)nc(-c4cncc(Cl)c4)nc32)[C@H](O)[C@@H]1O` [compound 257, (2S,3S,4R,5R)-5-(2-(5-chloropyridin-3-yl)-6-((oxazol-4-ylmethyl)amino)-9H-purin-9-yl)-3,4-dihydroxyl-N-(methyl-d3)tetrahydrofuran-2-carboxamide] here?
A: 96.00 kg·ng·h/mL/mg

Q: With `[2H]C([2H])([2H])NC(=O)[C@H]1O[C@@H](n2cnc3c(NCc4cc(C)ccn4)nc(-c4cncc(Cl)c4)nc32)[C@H](O)[C@@H]1O` [compound 215] as the molecule, how does the “AUC_D” value read?
A: 785.90 kg·ng·h/mL/mg

Q: With `CNC(=O)[C@H]1O[C@@H](n2cnc3c(NCc4ccc(F)c(F)c4)nc(-c4cncc(Cl)c4)nc32)[C@H](O)[C@@H]1O` [compound 322, (2S,3S,4R,5R)-5-(2-(5-chloropyridin-3-yl)-6-((3,4-difluorobenzyl)amino)-9H-purin-9-yl)-3,4-dihydroxyl-N-methyltetrahydrofuran-2-carboxamide] as the molecule, how does the “AUC_D” value read?
A: 97.03 kg·ng·h/mL/mg

Q: With `[2H]C([2H])([2H])NC(=O)[C@H]1O[C@@H](n2cnc3c(NCc4cccc(C)c4)nc(-c4cncc(F)c4)nc32)[C@H](O)[C@@H]1O` [compound 162, (2S,3S,4R,5R)-5-(2-(5-fluoropyridin-3-yl)-6-((3-methylbenzyl)amino)-9H-purin-9-yl)-3,4-dihydroxyl-N-(methyl-d3)-tetrahydrofuran-2-carboxamide] as the molecule, how does the “AUC_D” value read?
A: 1156.15 kg·ng·h/mL/mg

Q: For `CNC(=O)[C@H]1O[C@@H](n2cnc3c(NCc4cccc(OC)c4)nc(-c4cncc(Cl)c4)nc32)[C@H](O)[C@@H]1O` (stereo in doubt) [compound 213, (2S,3S,4R,5S)-5-(2-(5-chloropyridin-3-yl)-6-((3-methoxybenzyl)amino)-9/-purin-9-yl)-3,4-dihydroxyl-N-methyltetrahydrofuran-2-carboxamide], which “AUC_D” value is on record?
A: 360.90 kg·ng·h/mL/mg

Q: For `CCNC(=O)[C@H]1O[C@@H](n2cnc3c(NCc4ccccc4)nc(-c4cncc(Cl)c4)nc32)[C@H](O)[C@@H]1O` [compound 242, (2S,3S,4R,5R)-5-(6-(benzylamino)-2-(5-chloropyridin-3-yl)-9H-purin-9-yl)-N-ethyl-3,4-dihydroxyltetrahydrofuran-2-carboxamide], which “AUC_D” value is on record?
A: 811.33 kg·ng·h/mL/mg

Q: Which “AUC_D” value does the source give for `[2H]C([2H])([2H])NC(=O)[C@H]1O[C@@H](n2cnc3c(NCc4cc(F)cc(Cl)c4)nc(-c4cncc(Cl)c4)nc32)[C@H](O)[C@@H]1O` [compound 241, (2S,3S,4R,5R)-5-(6-(3-chloro-5-fluorobenzylamino)-2-(5-chloropyridin-3-yl)-9H-purin-9-yl)-3,4-dihydroxyl-N-(methyl-d3)-tetrahydrofuran-2-carboxamide] here?
A: 440.67 kg·ng·h/mL/mg
